Measured values reported in PubChem BioAssay AID1963450 (Molecular Pharmacology Branch, DTP, NCI, 2024).

System: 556581-035-R-J1-PDC complex spheroid growth
Assay: Anticancer human tumor 556581-035-R-J1-PDC patient-derived ovarian carcinoma cell line growth inhibition [Asc]
Details: for IC50: curve of first compound; for viability, T/C: stronger effect = lower value
Outline: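 Tumor cells were grown as multicellular spheroids with stromal HUVEC and mesenchymal stem cells and treated singly or in combination. Concentrations fell in half-log steps from the clinical Cmax, or from 10 microM where none was known.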
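Note: spheroids exposed to agents for 7 days before viability read.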

Question: What does the source list for `CCN1C(C(=O)NC23CCC(C(=O)O)(CC2)CC3)C(c2cccc(Cl)c2F)C2(C(=O)Nc3cc(Cl)ccc32)C12CCCCC2` (stereo not given) + Cc1c(S(C)(=O)=O)c(-c2cc(F)cc(N3CCN(c4ccc(NS(=O)(=O)c5ccc(NC(CCN6CCC(C(=O)OCCCP(=O)(O)O)CC6)CSc6ccccc6)c(S(=O)(=O)C(F)(F)F)c5)cc4)CC3)c2)c(-c2ccc(Cl)cc2)n1C(C)C?
Answer: IC50 (second compound 0.1 µM): > 3 µM; IC50 (second compound 0.316 µM): > 3 µM; IC50 (second compound 1 µM): > 3 µM; IC50 (second compound 3.16 µM): > 3 µM; IC50 (second compound 10 µM): 0.812 µM; viability, T/C (second compound 0.1 µM, first compound 0.00949 µM): 80.2%; viability, T/C (second compound 0.1 µM, first compound 0.03 µM): 84.5%; viability, T/C (second compound 0.1 µM, first compound 0.0949 µM): 89.2%; viability, T/C (second compound 0.1 µM, first compound 0.3 µM): 81.3%; viability, T/C (second compound 0.1 µM, first compound 0.949 µM): 82%; viability, T/C (second compound 0.1 µM, first compound 3 µM): 75.8%; viability, T/C (second compound 0.316 µM, first compound 0.00949 µM): 82.2%; viability, T/C (second compound 0.316 µM, first compound 0.03 µM): 77.6%; viability, T/C (second compound 0.316 µM, first compound 0.0949 µM): 85.3%; viability, T/C (second compound 0.316 µM, first compound 0.3 µM): 68.3%; viability, T/C (second compound 0.316 µM, first compound 0.949 µM): 64%; viability, T/C (second compound 0.316 µM, first compound 3 µM): 66.4%; viability, T/C (second compound 1 µM, first compound 0.00949 µM): 87%; viability, T/C (second compound 1 µM, first compound 0.03 µM): 74.2%; viability, T/C (second compound 1 µM, first compound 0.0949 µM): 80.1%; viability, T/C (second compound 1 µM, first compound 0.3 µM): 78.1%; viability, T/C (second compound 1 µM, first compound 0.949 µM): 60.2%; viability, T/C (second compound 1 µM, first compound 3 µM): 52.1%; viability, T/C (second compound 3.16 µM, first compound 0.00949 µM): 65.8%; viability, T/C (second compound 3.16 µM, first compound 0.03 µM): 68.3%; viability, T/C (second compound 3.16 µM, first compound 0.0949 µM): 74.8%; viability, T/C (second compound 3.16 µM, first compound 0.3 µM): 69.4%; viability, T/C (second compound 3.16 µM, first compound 0.949 µM): 77.1%; viability, T/C (second compound 3.16 µM, first compound 3 µM): 47.2%; viability, T/C (second compound 10 µM, first compound 0.00949 µM): 60.2%; viability, T/C (second compound 10 µM, first compound 0.03 µM): 67.6%; viability, T/C (second compound 10 µM, first compound 0.0949 µM): 55.6%; viability, T/C (second compound 10 µM, first compound 0.3 µM): 58.7%; viability, T/C (second compound 10 µM, first compound 0.949 µM): 49%; viability, T/C (second compound 10 µM, first compound 3 µM): 30.8%
